Measurements taken from PubChem BioAssay AID248 (DTP/NCI, 2004).
Toxic doses and inconclusive results are not listed. Cut-off read from the data, not from the text of the source: active = T/C of 150% or more; inactive = T/C below 125%.

System: L1210 leukemia ip in BDF1 mice, survival T/C
Test: NCI In Vivo Anticancer Drug Screen. Data for tumor model L1210 Leukemia (intraperitoneal) in B6D2F1 (BDF1) mice
Settings: endpoint: mean survival time, higher = longer survival
How it was run: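 Read-out is survival time, reported as the treated-group measurement over the vehicle-control measurement.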

[1] = dose: 100.0 mg/kg/injection, schedule: Q01DX009 (ip), vehicle: saline with Tween-80
[2] = dose: 200.0 mg/kg/injection, schedule: Q01DX009 (ip), vehicle: saline with Tween-80
[3] = dose: 100.0 mg/kg/injection, schedule: Q04DX003 (ip), vehicle: Klucel (hydroxypropylcellulose) (HPC)
[4] = dose: 200.0 mg/kg/injection, schedule: Q04DX003 (ip), vehicle: Klucel (hydroxypropylcellulose) (HPC)
[5] = dose: 400.0 mg/kg/injection, schedule: Q04DX003 (ip), vehicle: Klucel (hydroxypropylcellulose) (HPC)
[6] = dose: 100.0 mg/kg/injection, schedule: Q04DX003 (ip), vehicle: saline with Tween-80
[7] = dose: 200.0 mg/kg/injection, schedule: Q04DX003 (ip), vehicle: saline with Tween-80
[8] = dose: 400.0 mg/kg/injection, schedule: Q04DX003 (ip), vehicle: saline with Tween-80
[9] = dose: 100.0 mg/kg/injection, schedule: Q01DX001 (ip), vehicle: saline
[10] = dose: 200.0 mg/kg/injection, schedule: Q01DX001 (ip), vehicle: saline
[11] = dose: 400.0 mg/kg/injection, schedule: Q01DX001 (ip), vehicle: saline
[12] = dose: 100.0 mg/kg/injection, schedule: Q01DX009 (ip), vehicle: Klucel (hydroxypropylcellulose) (HPC)
[13] = dose: 200.0 mg/kg/injection, schedule: Q01DX009 (ip), vehicle: Klucel (hydroxypropylcellulose) (HPC)
[14] = dose: 400.0 mg/kg/injection, schedule: Q01DX009 (ip), vehicle: Klucel (hydroxypropylcellulose) (HPC)
[15] = dose: 400.0 mg/kg/injection, schedule: Q01DX009 (ip), vehicle: saline with Tween-80
[16] = dose: 75.0 mg/kg/injection, schedule: Q01DX001 (ip), vehicle: saline
[17] = dose: 25.0 mg/kg/injection, schedule: Q01DX009 (ip), vehicle: Klucel (hydroxypropylcellulose) (HPC)
[18] = dose: 50.0 mg/kg/injection, schedule: Q01DX009 (ip), vehicle: Klucel (hydroxypropylcellulose) (HPC)
[19] = dose: 100.0 mg/kg/injection, schedule: Q04DX002 (ip), vehicle: Klucel (hydroxypropylcellulose) (HPC)
[20] = dose: 200.0 mg/kg/injection, schedule: Q04DX002 (ip), vehicle: Klucel (hydroxypropylcellulose) (HPC)
[21] = dose: 400.0 mg/kg/injection, schedule: Q04DX002 (ip), vehicle: Klucel (hydroxypropylcellulose) (HPC)
[22] = dose: 12.5 mg/kg/injection, schedule: Q01DX009 (ip), vehicle: Klucel (hydroxypropylcellulose) (HPC)

Measured: T/C

CC(C)(C)C(Br)C(Br)Br (centres undefined) (tested in a mixture with another compound)
inactive: dose: 50.0 mg/kg/injection, schedule: Q01DX009 (ip), vehicle: saline with Tween-80 101 % of control | [1] 97 % of control | [2] 89 % of control

COc1cccc(NC(=S)NC2CC(C)CC(C)(C)C2)c1 (centres undefined)
inactive: dose: 100.0 mg/kg/injection, schedule: Q04DX002 (ip), vehicle: gum acacia 95 % of control | dose: 200.0 mg/kg/injection, schedule: Q04DX002 (ip), vehicle: gum acacia 98 % of control | dose: 400.0 mg/kg/injection, schedule: Q04DX002 (ip), vehicle: gum acacia 95 % of control

COc1cc(OC)c(NC2=CC(c3ccc(Cl)cc3)OC2=O)cc1Cl (centres undefined)
inactive: dose: 100.0 mg/kg/injection, schedule: Q01DX001 (ip), vehicle: Klucel (hydroxypropylcellulose) (HPC) 92 % of control | [3] 92 % of control | dose: 200.0 mg/kg/injection, schedule: Q01DX001 (ip), vehicle: Klucel (hydroxypropylcellulose) (HPC) 94 % of control | [4] 95 % of control | dose: 400.0 mg/kg/injection, schedule: Q01DX001 (ip), vehicle: Klucel (hydroxypropylcellulose) (HPC) 92 % of control | [5] 95 % of control

NNC(=O)C1C2C=CC(C2)C1C(=O)NN (centres undefined)
inactive: [6] 103 % of control | [7] 91 % of control | [8] 100 % of control

COC(=O)C1(C)COP(=O)(N2CC2)OC1 (centres undefined)
inactive: [9] 101 % of control | [10] 106 % of control | [11] 95 % of control

Cc1nnc(NC(=O)C(Cl)(Cl)Cl)s1
inactive: dose: 100.0 mg/kg/injection, schedule: Q01DX001 (ip), vehicle: other 94 % of control | dose: 100.0 mg/kg/injection, schedule: Q04DX003 (ip), vehicle: other 96 % of control | dose: 200.0 mg/kg/injection, schedule: Q01DX001 (ip), vehicle: other 105 % of control | dose: 200.0 mg/kg/injection, schedule: Q04DX003 (ip), vehicle: other 109 % of control | dose: 400.0 mg/kg/injection, schedule: Q01DX001 (ip), vehicle: other 104 % of control | dose: 400.0 mg/kg/injection, schedule: Q04DX003 (ip), vehicle: other 96 % of control

COC(OC)c1[nH]c(=S)[nH]c(=O)c1Cc1c(Cl)cccc1Cl
inactive: [6] 101 % of control | [7] 103 % of control | [8] 94 % of control

O=C(OC1CSC1)c1ccc([N+](=O)[O-])cc1
inactive: [12] 95 % of control | [13] 92 % of control | [14] 97 % of control

O=C1NC(=O)C(c2ccccn2)N1 (centres undefined)
inactive: [1] 91 % of control | [2] 91 % of control | [15] 94 % of control

O=[As](O)(c1cccc(Cl)c1)c1cccc(Cl)c1
inactive: [16] 105 % of control

O=[N+]([O-])c1ccc(/C=C2\c3ccccc3-c3nc4ccccc4nc32)cc1
inactive: [16] 92 % of control | dose: 300.0 mg/kg/injection, schedule: Q01DX001 (ip), vehicle: saline 91 % of control

c1ccc(NC2CCCCC2)cc1
inactive: dose: 50.0 mg/kg/injection, schedule: Q01DX003 (ip), vehicle: Klucel (hydroxypropylcellulose) (HPC) 103 % of control | dose: 100.0 mg/kg/injection, schedule: Q01DX003 (ip), vehicle: Klucel (hydroxypropylcellulose) (HPC) 101 % of control | dose: 200.0 mg/kg/injection, schedule: Q01DX003 (ip), vehicle: Klucel (hydroxypropylcellulose) (HPC) 101 % of control

Cc1cc(C(N)=O)c(C(N)=O)c(=O)[nH]1
inactive: dose: 75.0 mg/kg/injection, schedule: Q01DX001 (ip), vehicle: water 97 % of control | dose: 150.0 mg/kg/injection, schedule: Q01DX001 (ip), vehicle: water 92 % of control

O=C1C(O)=C(c2ccccc2)C(=O)C(O)=C1c1ccccc1
inactive: dose: 25.0 mg/kg/injection, schedule: Q01DX001 (ip), vehicle: saline 95 % of control | [17] 100 % of control | dose: 50.0 mg/kg/injection, schedule: Q01DX001 (ip), vehicle: saline 104 % of control | [18] 105 % of control | dose: 50.0 mg/kg/injection, schedule: Q04DX002 (ip), vehicle: Klucel (hydroxypropylcellulose) (HPC) 98 % of control | [9] 96 % of control | [19] 120 % of control | [10] 104 % of control | [20] 91 % of control

O=C(Nc1ccccc1-c1ccc([N+](=O)[O-])cc1)c1ccc(-c2ccccc2)cc1
inactive: dose: 400.0 mg/kg/injection, schedule: Q04DX003 (ip), vehicle: saline 92 % of control

Cc1cc(OCCOC(=O)Nc2ccccc2C(F)(F)F)cc(C)c1Cl
inactive: [19] 89 % of control | [20] 101 % of control | [21] 92 % of control

COC(=N)Cc1ccccc1
inactive: dose: 75.0 mg/kg/injection, schedule: Q01DX009 (ip), vehicle: saline with Tween-80 100 % of control | dose: 150.0 mg/kg/injection, schedule: Q01DX009 (ip), vehicle: saline with Tween-80 101 % of control | dose: 300.0 mg/kg/injection, schedule: Q01DX009 (ip), vehicle: saline with Tween-80 101 % of control

CC(=O)Nc1cc(Cl)c(Cl)cc1Cl
inactive: [6] 103 % of control | [7] 102 % of control | [8] 96 % of control

CSc1ccc(NC(=O)NCCc2ccccc2)cc1
inactive: [1] 94 % of control | [3] 96 % of control | [2] 102 % of control | [4] 96 % of control | [15] 107 % of control | [5] 104 % of control

Cn1c(O)c(N)c(=O)n(C)c1=O
inactive: dose: 50.0 mg/kg/injection, schedule: Q01DX009 (ip), vehicle: saline 98 % of control | dose: 100.0 mg/kg/injection, schedule: Q01DX009 (ip), vehicle: saline 92 % of control

Cc1ccc(NC(=S)N2CCCC(C)C2)cc1C (centres undefined)
inactive: [12] 102 % of control | [13] 100 % of control | [14] 102 % of control

C=C1CC[N+]2(CCCC)CCCC12 (centres undefined)
inactive: [22] 103 % of control | [17] 97 % of control | [18] 95 % of control

CCCCNC(=O)Oc1c(Cl)cc(Cl)c(Cl)c1[N+](=O)[O-]
inactive: [22] 96 % of control | [17] 112 % of control | [18] 101 % of control

Cc1cc(OCC(N)=O)ccc1Cl
inactive: [19] 103 % of control | [20] 92 % of control | [21] 98 % of control

O=C(/C=C/C=C/C=C/C=C/C(=O)N1CCCCC1)N1CCCCC1
inactive: [9] 97 % of control | [10] 92 % of control | [11] 89 % of control

CC(=O)Nc1ccc(S(=O)(=O)Oc2ccccc2)cc1
inactive: dose: 100.0 mg/kg/injection, schedule: Q04DX003 (ip), vehicle: alcohol 98 % of control | dose: 200.0 mg/kg/injection, schedule: Q04DX003 (ip), vehicle: alcohol 98 % of control | dose: 400.0 mg/kg/injection, schedule: Q04DX003 (ip), vehicle: alcohol 108 % of control

CC(=O)Nc1ccc2c(ccc3ccc4ccccc4c32)c1
inactive: [19] 102 % of control | [20] 105 % of control | [21] 105 % of control
